Measurements from patent US10562869B2, “Oxadiazole compounds” (REMYND NV, priority 2014, dated 2020).
pEC50: −log10 of the molar value.

Each molecule was assayed on M17_3TAU(P301L) cells (assay: Retinoic acid-induced cytotoxicity (LDH) in TAU-P301L expressing M17_3TAU(P301L) neuroblastoma cells). Settings: Homo sapiens, Neuroblastoma cell, 168 h; toxicity inhibition (LDH) in M17_3TAU(P301L) cells challenged with retinoic acid, 7 days.
Assay type: cell-based
Description: A TAU expression plasmid was constructed by sub-cloning the cDNA encoding for human TAU-P301L protein, wherein proline at position 301 was substituted by a leucine residue, into mammalian expression vector pcDNA3.1 resulting in the plasmid pcDNA3.1-TAUP301L. Plasmid pcDNA3.1-TAU P301L was transfected into human neuroblastoma cells (BE-M17; ATCC No. CRL-2267™) using lipofectamine reagent and subsequently, independent clonal cell lines with the plasmids stably integrated into the genome were selected by antibiotic resistance selection (Geneticin (G418)), resulting in cell line M17_3TAUP301L. Expression of the TAUP301L gene in the M17_3TAUP301L cells was confirmed by Western blot analysis.
M17_3TAU(P301L) cells were treated chronically with retinoic acid (RA) in low serum conditions to induce Alzheimer's disease-like intracellular signaling deregulation leading to increased TAU levels and subsequent cell death. Cytotoxicity of cells was measured by quantification of lactate dehydrogenase (LDH) levels. In dead cells LDH leaked out of the cells into the medium due to a loss of plasma-membrane integrity.
3 days preceding the experiment, a pre-culture of M17_3TAU(P301L) cells was prepared, starting from a stock culture, at a density of 50.000-100.000 cells/cm^2 in culture medium (Optimem Reduced Serum with phenol red (Invitrogen, Cat. 31985-047)) supplemented with 10% fetal calf serum (FCS), 1 mM sodium pyruvate, 1×non-essential amino acids (NEAA), 500 μg/ml G418 and 0.5×(ABAM). At the day of the experiment these precultures were diluted to ˜0.1·10^6 cells/ml in detection medium (Optimem Reduced Serum without phenol red (Gibco, Cat.11058-021) supplemented with 1% fetal calf serum (FCS), 1 mM sodium pyruvate, 1×non-essential amino acids (NEAA), 500 μg/ml G418 and 0.5×ABAM) and 60 μL of this suspension was dispensed per well into a 96-well microtiter plate. After 3 hours of incubation at 37° C./5% CO2 an equal volume of detection medium (without FCS) containing 3.75 μM RA was added and subsequently incubated for 7 days at 37° C./5% CO2. Then LDH activity was determined using the Promega Cytotox 96 Non-Radioactive cytotoxicity assay (Cat. G1780), according to the manufacturer's instructions. Cytotoxicity was defined as the ratio of LDH relative the total LDH in the cells and supernatant.
The assay described above using the M17_3TAU(P301L) cell line allowed to screen compounds for their ability to decrease cytotoxicity in RA-challenged cells. Compounds of the invention were tested for their ability to decrease toxicity at different concentrations, ranging from low non-effective concentrations to high potent concentrations. Afterwards, the dose-dependent inhibition curve was used to calculate their EC50. A compound was considered to be active in this test when it inhibited toxicity by more than 20% relative to untreated M17_3TAU(P301L) cells at a concentration of 10 μM or lower.
`COc1cc(CCN2CCN(c3nc(C4C[C@@H]5CC[C@H]4C5)no3)CC2)ccn1` (stereo partly drawn) [Cmpd187, 3-((1S,4R)-bicyclo[2.2.1]heptan-2-yl)-5-(4-(2-(2-methoxypyridin-4-yl)ethyl)piperazin-1-yl)-1,2,4-oxadiazole] was tested, and the pEC50 was 7.33.
For `Fc1cccc(-c2noc(N3CCN(CCc4ccc(Cl)cc4)CC3)n2)c1` [Cmpd031, 5-(4-(4-Chlorophenethyl)piperazin-1-yl)-3-(3-fluorophenyl)-1,2,4-oxadiazole], the pEC50 was 7.51.
`Cc1ccccc1CN1CCN(c2nc(-c3ccc(Cl)cc3)no2)CC1` [Cmpd022, 3-(4-Chlorophenyl)-5-(4-(2-methylbenzyl)piperazin-1-yl)-1,2,4-oxadiazole] gave a pEC50 of 7.46.
`Fc1ccc(-c2noc(N3CCN(CCc4ccc(Cl)cc4)CC3)n2)cc1F` [Cmpd036, 1-[2-(4-Chloro-phenyl)-ethyl]-4-[3-(3,4-difluoro-phenyl)-[1,2,4]oxadiazol-5-yl]-piperazine] showed a pEC50 of 7.66.
`N#Cc1ccccc1CN1CCN(c2nc(-c3cccc(Cl)c3)no2)CC1` [Cmpd028, 2-((4-(3-(3-Chlorophenyl)-1,2,4-oxadiazol-5-yl)piperazin-1-yl)methyl)benzonitrile] was tested, and the pEC50 was 7.32.
Work on `Fc1ccccc1CN1CCN(c2nc(Cc3ccc(Cl)cc3)no2)CC1` [Cmpd061, 3-(4-Chlorobenzyl)-5-(4-(2-fluorobenzyl)piperazin-1-yl)-1,2,4-oxadiazole] yielded a pEC50 of 6.16.
`Cc1ccccc1CN1CCN(c2nc(Cc3ccc(F)c(F)c3)no2)CC1` [Cmpd104, 1-[3-(3,4-Difluoro-benzyl)-[1,2,4]oxadiazol-5-yl]-4-(2-methyl-benzyl)-piperazine] showed a pEC50 of 7.43.
In the case of `Cc1ccc(CN2CCN(c3nc(C4C[C@@H]5CC[C@H]4C5)no3)CC2)cc1` (stereo partly drawn) [Cmpd185, 3-((1S,4R)-bicyclo[2.2.1]heptan-2-yl)-5-(4-(4-methylbenzyl)piperazin-1-yl)-1,2,4-oxadiazole], the pEC50 was 7.15.
For `COc1cc(CCN2CCN(c3nc(-c4cccc(F)c4)no3)CC2)ccn1` [Cmpd032, 3-(3-Fluorophenyl)-5-(4-(2-(2-methoxypyridin-4-yl)ethyl)piperazin-1-yl)-1,2,4-oxadiazole], the pEC50 was 8.10.
`FC(F)(F)CCCN1CCN(c2nc(Cc3ccc(Cl)cc3)no2)CC1` [Cmpd068, 1-[3-(4-Chloro-benzyl)-[1,2,4]oxadiazol-5-yl]-4-(4,4,4-trifluoro-butyl)-piperazine] showed a pEC50 of 6.82.
`Cc1ccccc1CN1CCN(c2nc(C3(c4ccccc4)CC3)no2)CC1` [Cmpd123, 5-(4-(2-Methylbenzyl)piperazin-1-yl)-3-(1-phenylcyclopropyl)-1,2,4-oxadiazole] gave a pEC50 of 6.07.
With `COc1cccc(CCN2CCN(c3nc(Cc4ccc(Cl)cc4)no3)CC2)c1` [Cmpd056, 1-[3-(4-Chloro-benzyl)-[1,2,4]oxadiazol-5-yl]-4-[2-(3-methoxy-phenyl)-ethyl]-piperazine] the pEC50 was 7.12.
`Clc1ccc(Cc2noc(N3CCN(Cc4ccc5c(c4)OCO5)CC3)n2)cc1` [Cmpd055, 1-Benzo[1,3]dioxol-5-ylmethyl-4-[3-(4-chloro-benzyl)-[1,2,4]oxadiazol-5-yl]-piperazine] was tested, and the pEC50 was 6.34.
With `N#CCCCN1CCN(c2nc(CCC(F)(F)F)no2)CC1` [Cmpd181, 4-(4-(3-(3,3,3-Trifluoropropyl)-1,2,4-oxadiazol-5-yl)piperazin-1-yl)butanenitrile] the pEC50 was 6.23.
With `Fc1ccc(C(F)(F)c2noc(N3CCN(Cc4ccc5c(c4)OCO5)CC3)n2)cc1` [Cmpd149, 5-(4-(Benzo[d][1,3]dioxol-5-ylmethyl)piperazin-1-yl)-3-(difluoro(4-fluorophenyl)methyl)-1,2,4-oxadiazole] the pEC50 was 6.07.
In the case of `COc1cccc(CCN2CCN(c3nc(Cc4ccccc4)no3)CC2)c1` [Cmpd042, 1-(3-Benzyl-[1,2,4]oxadiazol-5-yl)-4-[2-(3-methoxy-phenyl)-ethyl]-piperazine], the pEC50 was 8.52.
`Cc1ccccc1CN1CCN(c2nc(C3(c4ccc(F)cc4)CC3)no2)CC1` [Cmpd108, 3-(1-(4-Fluorophenyl)cyclopropyl)-5-(4-(2-methylbenzyl)piperazin-1-yl)-1,2,4-oxadiazole] was tested, and the pEC50 was 6.12.
For `C1CN(CCN2CCN(c3nc(C4C[C@@H]5CC[C@H]4C5)no3)CC2)CCO1` (stereo partly drawn) [Cmpd188, 4-(2-(4-(3-((1S,4R)-bicyclo[2.2.1]heptan-2-yl)-1,2,4-oxadiazol-5-yl)piperazin-1-yl)ethyl)morpholine], the pEC50 was 8.40.
For `Cc1cccc(CN2CCN(c3nc(CCC(F)(F)F)no3)CC2)n1` [Cmpd182, 5-(4-((6-Methylpyridin-2-yl)methyl)piperazin-1-yl)-3-(3,3,3-trifluoropropyl)-1,2,4-oxadiazole], the pEC50 was 6.55.
Work on `FC(F)(F)CCc1noc(N2CCN(Cc3ccccc3Cl)CC2)n1` [Cmpd177, 5-(4-(2-Chlorobenzyl)piperazin-1-yl)-3-(3,3,3-trifluoropropyl)-1,2,4-oxadiazole] yielded a pEC50 of 6.76.
`COc1cccc(CCN2CCN(c3nc(-c4ccc(C)cc4)no3)CC2)c1` [Cmpd009, 5-(4-(3-Methoxyphenethyl)piperazin-1-yl)-3-(p-tolyl)-1,2,4-oxadiazole] was tested, and the pEC50 was 7.41.
`Clc1ccc(CCN2CCN(c3nc(-c4cccc(Cl)c4)no3)CC2)cc1` [Cmpd024, 5-(4-(4-Chlorophenethyl)piperazin-1-yl)-3-(3-chlorophenyl)-1,2,4-oxadiazole] showed a pEC50 of 6.92.
`FC(F)(F)CCc1noc(N2CCN(CCN3CCOCC3)CC2)n1` [Cmpd180, 4-(2-(4-(3-(3,3,3-Trifluoropropyl)-1,2,4-oxadiazol-5-yl)piperazin-1-yl)ethyl)morpholine] gave a pEC50 of 6.65.
Work on `Clc1ccccc1CN1CCN(c2nc(-c3ccccc3)no2)CC1` [Cmpd001, 5-(4-(2-Chlorobenzyl)piperazin-1-yl)-3-phenyl-1,2,4-oxadiazole] yielded a pEC50 of 7.57.
`FC(F)(F)CCc1noc(N2CCN(CCc3ccc(Cl)cc3)CC2)n1` [Cmpd174, 5-(4-(4-Chlorophenethyl)piperazin-1-yl)-3-(3,3,3-trifluoropropyl)-1,2,4-oxadiazole] gave a pEC50 of 7.62.
In the case of `Cc1cc(Cc2noc(N3CCN(CCc4ccc(Cl)cc4)CC3)n2)ccn1` [Cmpd170, 5-(4-(4-Chlorophenethyl)piperazin-1-yl)-3-((2-methylpyridin-4-yl)methyl)-1,2,4-oxadiazole], the pEC50 was 6.19.
`COc1cccc(CCN2CCN(c3nc(C4(c5ccc(F)cc5)CC4)no3)CC2)c1` [Cmpd109, 3-(1-(4-Fluorophenyl)cyclopropyl)-5-(4-(3-methoxyphenethyl)piperazin-1-yl)-1,2,4-oxadiazole] was tested, and the pEC50 was 6.31.
In the case of `Fc1ccc(Cc2noc(N3CCN(CCc4ccc(Cl)cc4)CC3)n2)cc1F` [Cmpd102, 1-[2-(4-Chloro-phenyl)-ethyl]-4-[3-(3,4-difluoro-benzyl)-[1,2,4]oxadiazol-5-yl]-piperazine], the pEC50 was 7.77.
In the case of `Clc1ccc(CCN2CCN(c3nc(-c4ccc(Cl)cc4)no3)CC2)cc1` [Cmpd019, 5-(4-(4-Chlorophenethyl)piperazin-1-yl)-3-(4-chlorophenyl)-1,2,4-oxadiazole], the pEC50 was 6.95.
`COc1cc(CCN2CCN(c3nc(-c4ccccc4)no3)CC2)ccn1` [Cmpd004, 5-(4-(2-(2-Methoxypyridin-4-yl)ethyl)piperazin-1-yl)-3-phenyl-1,2,4-oxadiazole] gave a pEC50 of 7.44.
`Cc1ccccc1CN1CCN(c2nc(Cc3ccccc3)no2)CC1` [Cmpd041, 1-(3-Benzyl-[1,2,4]oxadiazol-5-yl)-4-(2-methylbenzyl)-piperazine] showed a pEC50 of 7.26.
Work on `Fc1ccc(C2(c3noc(N4CCN(CCc5ccc(Cl)cc5)CC4)n3)CC2)cc1` [Cmpd111, 5-(4-(4-Chlorophenethyl)piperazin-1-yl)-3-(1-(4-fluorophenyl)cyclopropyl)-1,2,4-oxadiazole] yielded a pEC50 of 6.63.
For `COc1cccc(CCN2CCN(c3nc(Cc4cccc(Cl)c4)no3)CC2)c1` [Cmpd076, 1-[3-(3-Chloro-benzyl)-[1,2,4]oxadiazol-5-yl]-4-[2-(3-methoxy-phenyl)-ethyl]-piperazine], the pEC50 was 8.22.
`CC(C)CCN1CCN(c2nc(-c3cccc(F)c3)no2)CC1` [Cmpd034, 3-(3-Fluorophenyl)-5-(4-isopentylpiperazin-1-yl)-1,2,4-oxadiazole] was tested, and the pEC50 was 8.70.
Work on `FC(F)(F)Cc1noc(N2CCN(CCc3ccc(Cl)cc3)CC2)n1` [Cmpd164, 5-(4-(4-Chlorophenethyl)piperazin-1-yl)-3-(2,2,2-trifluoroethyl)-1,2,4-oxadiazole] yielded a pEC50 of 6.51.
